# System: 233499-124-R-J3-PDC spheroids with HUVEC/MSC, viability
# Test: Anticancer human tumor 233499-124-R-J3-PDC patient-derived colon adenocarcinoma cell line growth inhibition [PI3K]
# Conditions: for IC50: curve of first compound; for viability, T/C: stronger effect = lower value
# Method in brief: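 Complex 3D spheroids (cancer cells + endothelial HUVEC + mesenchymal stem cells); drug pairs of targeted agent x inavolisib/alpelisib/duvelisib/copanlisib; half-log series from ~Cmax, max 10 microM if Cmax unknown; endpoint viability.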
# [1] = second compound 0.00316 µM, first compound 0.0316 µM
# [2] = second compound 0.00316 µM, first compound 0.1 µM
# [3] = second compound 0.00316 µM, first compound 0.316 µM
# [4] = second compound 0.00316 µM, first compound 1 µM
# [5] = second compound 0.00316 µM, first compound 3.16 µM
# [6] = second compound 0.00316 µM, first compound 10 µM
# [7] = second compound 0.01 µM, first compound 0.0316 µM
# [8] = second compound 0.01 µM, first compound 0.1 µM
# [9] = second compound 0.01 µM, first compound 0.316 µM
# [10] = second compound 0.01 µM, first compound 1 µM
# [11] = second compound 0.01 µM, first compound 3.16 µM
# [12] = second compound 0.01 µM, first compound 10 µM
# [13] = second compound 0.0316 µM, first compound 0.0316 µM
# [14] = second compound 0.0316 µM, first compound 0.1 µM
# [15] = second compound 0.0316 µM, first compound 0.316 µM
# [16] = second compound 0.0316 µM, first compound 1 µM
# [17] = second compound 0.0316 µM, first compound 3.16 µM
# [18] = second compound 0.0316 µM, first compound 10 µM
# [19] = second compound 0.1 µM, first compound 0.0316 µM
# [20] = second compound 0.1 µM, first compound 0.1 µM
# [21] = second compound 0.1 µM, first compound 0.316 µM
# [22] = second compound 0.1 µM, first compound 1 µM
# [23] = second compound 0.1 µM, first compound 3.16 µM
# [24] = second compound 0.1 µM, first compound 10 µM
# [25] = second compound 0.316 µM, first compound 0.0316 µM
# [26] = second compound 0.316 µM, first compound 0.1 µM
# [27] = second compound 0.316 µM, first compound 0.316 µM
# [28] = second compound 0.316 µM, first compound 1 µM
# [29] = second compound 0.316 µM, first compound 3.16 µM
# [30] = second compound 0.316 µM, first compound 10 µM
# [31] = second compound 1 µM, first compound 0.0316 µM
# [32] = second compound 1 µM, first compound 0.1 µM
# [33] = second compound 1 µM, first compound 0.316 µM
# [34] = second compound 1 µM, first compound 1 µM
# [35] = second compound 1 µM, first compound 3.16 µM
# [36] = second compound 1 µM, first compound 10 µM
# 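Also: spheroids exposed to agents for seven days before readout.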
# 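For viability, T/C in this document: percent viability relative to DMSO vehicle control taken as 100%.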
compound,measurement,setting,value
Cn1ncc(Cl)c1-c1cc(C(=O)NC(CN)Cc2cccc(F)c2)sc1Cl (stereo not drawn) + CC(Nc1ccc2c(c1)OCCn1cc(N3C(=O)OCC3C(F)F)nc1-2)C(N)=O,IC50,second compound 0.00316 µM,4.46 µM
same,IC50,second compound 0.01 µM,3.79 µM
same,IC50,second compound 0.0316 µM,2.73 µM
same,IC50,second compound 0.1 µM,3.19 µM
same,IC50,second compound 0.316 µM,1.8 µM
same,IC50,second compound 1 µM,1.73 µM
same,"viability, T/C",[1],73.9%
same,"viability, T/C",[2],93%
same,"viability, T/C",[3],93.9%
same,"viability, T/C",[4],99.9%
same,"viability, T/C",[5],58.4%
same,"viability, T/C",[6],30.5%
same,"viability, T/C",[7],86.1%
same,"viability, T/C",[8],81.8%
same,"viability, T/C",[9],81.5%
same,"viability, T/C",[10],80.8%
same,"viability, T/C",[11],53.3%
same,"viability, T/C",[12],32.1%
same,"viability, T/C",[13],111%
same,"viability, T/C",[14],82.9%
same,"viability, T/C",[15],80.3%
same,"viability, T/C",[16],77.8%
same,"viability, T/C",[17],43.8%
same,"viability, T/C",[18],21.4%
same,"viability, T/C",[19],97.4%
same,"viability, T/C",[20],94.3%
same,"viability, T/C",[21],65.6%
same,"viability, T/C",[22],67%
same,"viability, T/C",[23],62.3%
same,"viability, T/C",[24],16.6%
same,"viability, T/C",[25],79%
same,"viability, T/C",[26],94.3%
same,"viability, T/C",[27],61.5%
same,"viability, T/C",[28],55.2%
same,"viability, T/C",[29],46.9%
same,"viability, T/C",[30],19.8%
same,"viability, T/C",[31],42.6%
same,"viability, T/C",[32],61.8%
same,"viability, T/C",[33],67.2%
same,"viability, T/C",[34],56%
same,"viability, T/C",[35],42.9%
same,"viability, T/C",[36],14.3%
CC(Cn1ccc(-c2ccc(C#N)c(Cl)c2)n1)NC(=O)c1cc(C(C)O)[nH]n1 (stereo not drawn) + CC(Nc1ccc2c(c1)OCCn1cc(N3C(=O)OCC3C(F)F)nc1-2)C(N)=O,IC50,second compound 0.00316 µM,> 10 µM
same,IC50,second compound 0.01 µM,> 10 µM
same,IC50,second compound 0.0316 µM,> 10 µM
same,IC50,second compound 0.1 µM,> 10 µM
same,IC50,second compound 0.316 µM,7.39 µM
same,IC50,second compound 1 µM,> 10 µM
same,"viability, T/C",[1],97.5%
same,"viability, T/C",[2],84.3%
same,"viability, T/C",[3],86.6%
same,"viability, T/C",[4],83.1%
same,"viability, T/C",[5],90.8%
same,"viability, T/C",[6],97.7%
same,"viability, T/C",[7],99.5%
same,"viability, T/C",[8],77.7%
same,"viability, T/C",[9],96.2%
same,"viability, T/C",[10],83.4%
same,"viability, T/C",[11],82.5%
same,"viability, T/C",[12],76.8%
same,"viability, T/C",[13],92.1%
same,"viability, T/C",[14],82.4%
same,"viability, T/C",[15],67.9%
same,"viability, T/C",[16],93.9%
same,"viability, T/C",[17],101%
same,"viability, T/C",[18],83%
same,"viability, T/C",[19],83.1%
same,"viability, T/C",[20],89.3%
same,"viability, T/C",[21],90%
same,"viability, T/C",[22],80.3%
same,"viability, T/C",[23],74.4%
same,"viability, T/C",[24],71%
same,"viability, T/C",[25],76%
same,"viability, T/C",[26],63.7%
same,"viability, T/C",[27],70.5%
same,"viability, T/C",[28],73.6%
same,"viability, T/C",[29],90.6%
same,"viability, T/C",[30],41.2%
same,"viability, T/C",[31],62%
same,"viability, T/C",[32],62%
same,"viability, T/C",[33],47.4%
same,"viability, T/C",[34],62.6%
same,"viability, T/C",[35],66%
same,"viability, T/C",[36],54.6%
C#Cc1c(F)ccc2cc(O)cc(-c3ncc4c(N5CC6CCC(C5)N6)nc(OCC56CCCN5CC(F)C6)nc4c3F)c12 (stereo not drawn) + CC(Nc1ncnc2nc[nH]c12)c1cc2cccc(Cl)c2c(=O)n1-c1ccccc1,IC50,second compound 0.0316 µM,> 10 µM
same,IC50,second compound 0.1 µM,> 10 µM
same,IC50,second compound 0.316 µM,> 10 µM
same,IC50,second compound 1 µM,> 10 µM
same,IC50,second compound 3.16 µM,> 10 µM
same,IC50,second compound 10 µM,> 10 µM
same,"viability, T/C",[13],95%
same,"viability, T/C",[14],101%
same,"viability, T/C",[15],82.5%
same,"viability, T/C",[16],90.7%
same,"viability, T/C",[17],85.2%
same,"viability, T/C",[18],75.5%
same,"viability, T/C",[19],113%
same,"viability, T/C",[20],114%
same,"viability, T/C",[21],81.7%
same,"viability, T/C",[22],94.7%
same,"viability, T/C",[23],84%
same,"viability, T/C",[24],73.2%
same,"viability, T/C",[25],112%
same,"viability, T/C",[26],92.1%
same,"viability, T/C",[27],105%
same,"viability, T/C",[28],90.6%
same,"viability, T/C",[29],87.9%
same,"viability, T/C",[30],69.7%
same,"viability, T/C",[31],102%
same,"viability, T/C",[32],102%
same,"viability, T/C",[33],108%
same,"viability, T/C",[34],95.5%
same,"viability, T/C",[35],109%
same,"viability, T/C",[36],90.6%
same,"viability, T/C","second compound 3.16 µM, first compound 0.0316 µM",110%
same,"viability, T/C","second compound 3.16 µM, first compound 0.1 µM",94.2%
same,"viability, T/C","second compound 3.16 µM, first compound 0.316 µM",101%
same,"viability, T/C","second compound 3.16 µM, first compound 1 µM",77.9%
same,"viability, T/C","second compound 3.16 µM, first compound 3.16 µM",87.5%
same,"viability, T/C","second compound 3.16 µM, first compound 10 µM",55.9%
same,"viability, T/C","second compound 10 µM, first compound 0.0316 µM",92.8%
same,"viability, T/C","second compound 10 µM, first compound 0.1 µM",89.4%
same,"viability, T/C","second compound 10 µM, first compound 0.316 µM",87.5%
same,"viability, T/C","second compound 10 µM, first compound 1 µM",84.7%
same,"viability, T/C","second compound 10 µM, first compound 3.16 µM",108%
same,"viability, T/C","second compound 10 µM, first compound 10 µM",84.7%
CC1(C)CCC(Nc2ncc(C(F)(F)F)c(-c3c[nH]c4c(P(C)(C)=O)c(C#N)ccc34)n2)CN1 (stereo not drawn),"viability, T/C",compound 0.0316 µM,66.7% [middle of 4 runs]
same,"viability, T/C",compound 0.316 µM,46.9% [middle of 4 runs]
same,"viability, T/C",compound 1 µM,26.5% [middle of 4 runs]
same,"viability, T/C",compound 3.16 µM,29.1% [middle of 4 runs]
same,"viability, T/C",compound 10 µM,5.67% [middle of 4 runs]
CC(=O)c1c(C)c2cnc(Nc3ccc(N4CCNCC4)cn3)nc2n(C2CCCC2)c1=O + COc1c(OCCCN2CCOCC2)ccc2c3n(c(=NC(=O)c4cnc(N)nc4)nc12)CCN3,IC50,second compound 0.00316 µM,> 0.1 µM
same,IC50,second compound 0.01 µM,> 0.1 µM
same,IC50,second compound 0.0316 µM,> 0.1 µM
same,IC50,second compound 0.1 µM,> 0.1 µM
same,IC50,second compound 0.316 µM,< 0.000316 µM
same,IC50,second compound 1 µM,< 0.000316 µM
same,"viability, T/C","second compound 0.00316 µM, first compound 0.000316 µM",106%
same,"viability, T/C","second compound 0.00316 µM, first compound 0.001 µM",106%
same,"viability, T/C","second compound 0.00316 µM, first compound 0.00316 µM",121%
same,"viability, T/C","second compound 0.00316 µM, first compound 0.01 µM",106%
same,"viability, T/C",[1],76.5%
same,"viability, T/C",[2],61%
same,"viability, T/C","second compound 0.01 µM, first compound 0.000316 µM",86.5%
same,"viability, T/C","second compound 0.01 µM, first compound 0.001 µM",119%
same,"viability, T/C","second compound 0.01 µM, first compound 0.00316 µM",89.2%
same,"viability, T/C","second compound 0.01 µM, first compound 0.01 µM",89.3%
same,"viability, T/C",[7],83%
same,"viability, T/C",[8],75.7%
same,"viability, T/C","second compound 0.0316 µM, first compound 0.000316 µM",90%
same,"viability, T/C","second compound 0.0316 µM, first compound 0.001 µM",95.8%
same,"viability, T/C","second compound 0.0316 µM, first compound 0.00316 µM",94.4%
same,"viability, T/C","second compound 0.0316 µM, first compound 0.01 µM",86.8%
same,"viability, T/C",[13],86.2%
same,"viability, T/C",[14],86%
same,"viability, T/C","second compound 0.1 µM, first compound 0.000316 µM",56.3%
same,"viability, T/C","second compound 0.1 µM, first compound 0.001 µM",78.8%
same,"viability, T/C","second compound 0.1 µM, first compound 0.00316 µM",63.7%
same,"viability, T/C","second compound 0.1 µM, first compound 0.01 µM",73.2%
same,"viability, T/C",[19],61.6%
same,"viability, T/C",[20],62.4%
same,"viability, T/C","second compound 0.316 µM, first compound 0.000316 µM",28.7%
same,"viability, T/C","second compound 0.316 µM, first compound 0.001 µM",32.3%
same,"viability, T/C","second compound 0.316 µM, first compound 0.00316 µM",30.3%
same,"viability, T/C","second compound 0.316 µM, first compound 0.01 µM",31.8%
same,"viability, T/C",[25],27.5%
same,"viability, T/C",[26],31.2%
same,"viability, T/C","second compound 1 µM, first compound 0.000316 µM",13.7%
same,"viability, T/C","second compound 1 µM, first compound 0.001 µM",4.51%
same,"viability, T/C","second compound 1 µM, first compound 0.00316 µM",5.25%
same,"viability, T/C","second compound 1 µM, first compound 0.01 µM",12.8%
same,"viability, T/C",[31],10.7%
same,"viability, T/C",[32],10.2%

# Reference: PubChem BioAssay AID1963984 (Molecular Pharmacology Branch, DTP, NCI, 2024)
